Laboratory results taken from patent publication US20220073883A1, “COMPOSITIONS AND METHODS FOR GENERATION OF HEART FIELD-SPECIFIC PROGENITOR CELLS” (The Johns Hopkins University, priority 2018, published 2022).

Legend:
Assay type in all cases: cell-based, mouse
[1] = test system: ESC-derived cardiac spheroids; experiment: cardiogenesis: cTnT+ cardiomyocytes in cardiac spheroids at day 9 (flow cytometry)
From the text: Next, an embryonic stem cell (ESC) line (ESCHcn4-GFP; Tbx1-Cre Ai9) was established from the mice to determine if heart field specification can be recapitulated in a PSC system. It was hypothesized that a 3D multicellular system would better resemble heart field development in vivo, as early development is a highly dynamic process that involves tissue-tissue interactions between multiple cell types. Since CPCs are specified during mid-late gastrulation 7, 8, multicellular 3D spheroids were generated with the PSCs and treated them with various concentrations of Activin A and Bmp4 to determine whether induction of the early mesoderm influences heart field specification (FIGS. 1C and 1D). After 5 days of differentiation (120 h), GFP+ and RFP+ cells started to appear in the spheroids. The spheroids were analyzed for GFP+ and RFP+ cells by fluorescent activated cell sorting (FACS) at day 5.5 (132 h). […] The double positive GFP+/RFP+ cells correlated with the total number of GFP+ and RFP+ cells (FIG. 6J) and were sporadically interspersed within the GFP+ domain (FIG. 6K).
The overall effects on cardiogenesis were evaluated by analyzing the number of cardiomyocytes at day 9 (FIG. 6L).
Mouse ESCs and human iPSCs were maintained and differentiated as previously described^5, 43, 68 Briefly, mESCs were maintained on gelatin-coated dishes in maintenance medium (Glasgow minimum essential medium supplemented with 10% fetal bovine serum and […] Chir99021 and 1 μM PD98059 or 1000 U/ml ESGRO (Millipore, Billerica, Mass.), Glutamax, sodium pyruvate, MEM non-essential amino acids (Thermo Fisher Scientific). For spheroid formation and differentiation, mouse ESCs were plated in IMDM/Ham's F12 (Cellgro) (3:1) supplemented with N2, B27, penicillin/streptomycin, 2 mM GlutaMAX, 0.05% BSA, 5 ng/ml L-ascorbic acid (Sigma-Aldrich) and α-monothioglycerol (MTG; Sigma-Aldrich) at a final density of 100,000 cells/ml to allow spheroid formation. After 48 h spheroids were collected and transferred to ultra-low attachment plastic surface and induced for 40 hours with Activin A, Bmp4, Wnt3A, Wnt5A, Wnt11 (R&D Systems) alone or in combination. Human iPSCs were maintained in Geltrex-coated T25 flasks using Essential 8 medium. For spheroid formation and differentiation, hiPSCs were plated in RPMI plus B27 minus insulin with Bmp4 and CHIR99021 and incubated for 48 h. […]
Mouse embryos (E7.75) were dissected using forceps under a stereomicroscope (Zeiss) and regions of interest were dissociated and harvested using TrypLE. […] Single-cells were analyzed for RFP/GFP expression or sorted using a SH800 Cell sorter (Sony Biotechnologies). Live cells were analyzed for RFP and GFP expression and stained with antibodies targeting for the presence of appropriate markers. […] Data was analyzed using FlowJo software.

[2] = test system: ESC-derived cardiac spheroids (Hcn4-GFP; Tbx1-Cre; Ai9); experiment: heart field specification: Hcn4-GFP+ and Tbx1-Cre, RFP+ CPCs in cardiac spheroids by FACS at day 5.5; conditions: increasing levels of the factor; day 5.5
From the text: Next, an embryonic stem cell (ESC) line (ESCHcn4-GFP; Tbx1-Cre Ai9) was established from the mice to determine if heart field specification can be recapitulated in a PSC system. It was hypothesized that a 3D multicellular system would better resemble heart field development in vivo, as early development is a highly dynamic process that involves tissue-tissue interactions between multiple cell types. Since CPCs are specified during mid-late gastrulation 7, 8, multicellular 3D spheroids were generated with the PSCs and treated them with various concentrations of Activin A and Bmp4 to determine whether induction of the early mesoderm influences heart field specification (FIGS. 1C and 1D).
IPA utilizes an input gene list and a curated database of literature-derived pathways to infer which canonical pathways are most significant to the input data set. The analysis was focused on pathways related to ‘organism growth and development’. […] The effect of Bmp signals was evaluated during heart field specification. In order to minimize the possibility of influencing heart field cells after induction, all of the data were analyzed within 12 hs after the appearance of GFP^+/RFP^+ cells.
(§1) Mouse ESCs and human iPSCs were maintained and differentiated as previously described^5, 43, 68 Briefly, mESCs were maintained on gelatin-coated dishes in maintenance medium (Glasgow minimum essential medium supplemented with 10% fetal bovine serum and […] Chir99021 and 1 μM PD98059 or 1000 U/ml ESGRO (Millipore, Billerica, Mass.), Glutamax, sodium pyruvate, MEM non-essential amino acids (Thermo Fisher Scientific). For spheroid formation and differentiation, mouse ESCs were plated in IMDM/Ham's F12 (Cellgro) (3:1) supplemented with N2, B27, penicillin/streptomycin, 2 mM GlutaMAX, 0.05% BSA, 5 ng/ml L-ascorbic acid (Sigma-Aldrich) and α-monothioglycerol (MTG; Sigma-Aldrich) at a final density of 100,000 cells/ml to allow spheroid formation. After 48 h spheroids were collected and transferred to ultra-low attachment plastic surface and induced for 40 hours with Activin A, Bmp4, Wnt3A, Wnt5A, Wnt11 (R&D Systems) alone or in combination. Human iPSCs were maintained in Geltrex-coated T25 flasks using Essential 8 medium. For spheroid formation and differentiation, hiPSCs were plated in RPMI plus B27 minus insulin with Bmp4 and CHIR99021 and incubated for 48 h. After 48 h media was changed to RPMI plus B27 minus insulin. The hiPSC line used in this study was developed by Dr. Linzhao Cheng, the Johns Hopkins University, and had was generated from a de-identified patient using an approved IRB protocol.
Mouse embryos (E7.75) were dissected using forceps under a stereomicroscope (Zeiss) and regions of interest were dissociated and harvested using TrypLE. Embryoid bodies (EBs) and cells were dissociated and harvested using TrypLE. Single-cells were analyzed for RFP/GFP expression or sorted using a SH800 Cell sorter (Sony Biotechnologies). Live cells were analyzed for RFP and GFP expression and stained with antibodies targeting for the presence of appropriate markers. […] Data was analyzed using FlowJo software.

canonical Wnt activity = experiment: Topflash luciferase assay; conditions: Bmp4 (1.25 ng/ml) alone; 88 h of differentiation
Method: To test this, canonical Wnt activity was measured with its readout Topflash.
For Tbx1 and Tbx5 knockdown experiments, Tbx1 and Tbx5 ON-TARGETplus SMARTpool siRNA or scrambled siRNA (Dharmacon/Thermo Fisher Scientic) was used at 5 nM for cell transfection. Cells were transfected with Lipofectamine LTX (Life Technologies) in single-cell suspensions. For TOP-flash luciferase assays, mESCs were transfected with Topflash constructs and Renilla constructs and analyzed as previously described 5.

[3] = test system: ESC-derived cardiac spheroids; experiment: qPCR of FHF (tbx5, hcn4) and SHF (tbx1, fgf10) markers in treated spheroids; conditions: Bmp4 (1.25 ng/ml) alone
Method: To investigate the crosstalk between Bmp and Wnt signals, the spheroids were treated with Bmp4 and Wnts in combinations and analyzed expression levels of FHF (tbx5, hcn4) and SHF (tbx1, fgf10) markers.
as §1
RNA isolation was performed using either RNeasy Micro Kit (Cat #74004, Qiagen) or […]® PicoPure® RNA Isolation Kit following the manufacturer's instructions, and cDNA was generated using the high-capacity cDNA reverse transcription kit (Applied Biosystems). qPCR reactions were performed using the Taqman (Applied Biosystems) or Sybr Select qPCR mix (Thermo Fisher) with indicated primers. Gene expression levels were normalized to Gapdh. For the clonal cell-fate analysis, single Isl1-Cre RFP+, Cxcr4− and Isl1-Cre RFP^+, Cxcr4^+ cells were sorted at day 5.5 into 384-well plates and allowed to grow and differentiate for 7 days. […] RNA was isolated from 24 wells with colonies from Cxcr4− and Cxcr4+ sorted cells, respectively. Ct values<30 were considered positive. All samples were also analyzed for gapdh to exclude false-positive results.

## Bmp4: bone morphogenic protein (Bmp) 4, R&D Systems
[1]; 1.25 ng/ml Bmp4, day 9
  number of cTnT+ cardiomyocytes: > 30%
[1]; 1.25 ng/ml vs 0.5 ng/ml Bmp4, day 9
  difference in number of cTnT+ cardiomyocytes compared to 0.5 ng/ml Bmp4: > 10 fold
[1]; varying/increasing concentrations, cTnT+ at day 9
  effect on cardiogenesis: profound effect
[2]
  induction of GFP+ cells (FHF): promoted induction
  induction of RFP+ cells (SHF): promoted induction
Canonical Wnt activity
  topflash activity: increased
[3]
  expression of FHF markers (tbx5, hcn4): increased expression
  expression of SHF markers (tbx1, fgf10): increased expression
